Laboratory results from patent publication US20250197382A1, “KIF18A INHIBITOR” (WIGEN BIOMEDICINE TECHNOLOGY (SHANGHAI) CO., LTD., priority 2022, published 2025).

biological target: Recombinant human KIF18A (1-467His-tagged) protein (Homo sapiens (Human), UniProt Q8NI77); assay: KIF18A enzyme assay (microtubule-stimulated ATPase activity, ADP-Glo); type: biochemical; settings: 30 nM KIF18A, ATP 75 μM, read-out: inhibitory activity against KIF18A IC50
Experimental: Biological Example 1. Assay for In Vitro Inhibition of Enzymatic Activity of KIF18A by Compounds of the Present Invention
KIF18A enzyme assay: The enzymatic activity of KIF18A after treatment with the compounds was measured by an assay of microtubule-stimulated ATPase activity. ADP generated from the ATPase reaction was measured in this assay. The compounds were serially diluted 2-fold in DMSO over a range of 22 concentration points. Recombinant human KIF18A (1-467His-tagged) protein was expressed using a baculovirus system. Concentrations of KIF18A protein, microtubules, and ATP in the reaction were optimized for a standardized homogenous enzyme assay using an ADP-Glo kinase/ATPase assay kit. A reaction buffer [(15 mM Tris, pH 7.5), 10 mM MgCl2, 0.01% PluronicF-68, 1 μM paclitaxel, and 30 μg/mL pig microtubules] was prepared. The compounds and KIF18A protein (30 nM) were added to the prepared reaction buffer, and the reaction mixture was incubated at room temperature for 15 min, followed by addition of ATP (Km, 75 μM). The resulting reaction mixture was incubated at room temperature for another 15 min. 5 μL of ADP-Glo reagent and 2.5 μL of the reaction mixture were mixed and the resulting mixture was incubated at room temperature for 40 min. 10 μL of ADP-Glo detection reagent was added and the mixture was incubated at room temperature for 40 min. Luminescence was measured using a microplate reader and compared with that of the DMSO group, and then the inhibition percentages and IC50 values of the compounds were calculated.

Recombinant human KIF18A (1-467His-tagged) protein, sequence (Q8NI77 1-467): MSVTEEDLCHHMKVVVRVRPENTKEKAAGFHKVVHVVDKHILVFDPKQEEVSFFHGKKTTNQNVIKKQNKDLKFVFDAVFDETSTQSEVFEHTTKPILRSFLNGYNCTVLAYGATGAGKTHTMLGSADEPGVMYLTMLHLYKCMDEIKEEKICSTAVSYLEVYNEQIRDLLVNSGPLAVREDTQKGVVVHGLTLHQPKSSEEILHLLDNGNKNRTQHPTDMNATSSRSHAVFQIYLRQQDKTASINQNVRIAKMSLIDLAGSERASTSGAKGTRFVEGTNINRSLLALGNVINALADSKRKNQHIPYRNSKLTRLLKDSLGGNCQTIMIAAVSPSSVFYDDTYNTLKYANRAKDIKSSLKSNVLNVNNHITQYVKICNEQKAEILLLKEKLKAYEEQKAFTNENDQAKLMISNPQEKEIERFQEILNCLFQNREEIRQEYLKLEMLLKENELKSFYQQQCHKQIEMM
Recombinant human KIF18A (1-467His-tagged) protein, sequence (P02550 whole entry partner): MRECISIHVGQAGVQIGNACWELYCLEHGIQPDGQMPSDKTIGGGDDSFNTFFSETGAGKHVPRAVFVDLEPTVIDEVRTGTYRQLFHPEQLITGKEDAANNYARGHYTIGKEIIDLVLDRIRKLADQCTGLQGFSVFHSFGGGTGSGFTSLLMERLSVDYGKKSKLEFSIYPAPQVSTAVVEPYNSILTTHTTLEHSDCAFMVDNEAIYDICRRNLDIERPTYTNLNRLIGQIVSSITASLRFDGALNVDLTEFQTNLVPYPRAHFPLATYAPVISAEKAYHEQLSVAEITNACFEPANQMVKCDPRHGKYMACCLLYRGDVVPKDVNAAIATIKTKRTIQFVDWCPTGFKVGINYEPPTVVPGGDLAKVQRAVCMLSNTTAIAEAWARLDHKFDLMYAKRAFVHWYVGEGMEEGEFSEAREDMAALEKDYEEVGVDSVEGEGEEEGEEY
Recombinant human KIF18A (1-467His-tagged) protein, sequence (P02554 whole entry partner): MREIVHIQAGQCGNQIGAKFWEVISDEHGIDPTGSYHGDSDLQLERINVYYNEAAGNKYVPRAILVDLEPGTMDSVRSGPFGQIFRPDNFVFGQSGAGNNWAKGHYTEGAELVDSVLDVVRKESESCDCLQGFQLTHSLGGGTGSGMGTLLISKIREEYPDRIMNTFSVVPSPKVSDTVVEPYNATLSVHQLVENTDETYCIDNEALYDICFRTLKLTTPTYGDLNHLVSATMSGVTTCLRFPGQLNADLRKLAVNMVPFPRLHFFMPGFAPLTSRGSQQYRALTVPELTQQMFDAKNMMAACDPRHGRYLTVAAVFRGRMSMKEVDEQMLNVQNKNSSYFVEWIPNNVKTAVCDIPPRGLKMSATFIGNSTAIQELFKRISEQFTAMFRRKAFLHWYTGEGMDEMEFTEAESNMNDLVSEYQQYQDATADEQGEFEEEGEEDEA

IC50, ≤ 100 nM:
O=C(Nc1ccc(S(=O)(=O)NCCO)cc1N1CCC2(CC1)CC2)c1cc2c(c(N3CCC(F)CC3)c1)OCC2 [Compound 57], O=C(Nc1ccc(S(=O)(=O)NCCO)cc1N1CCC2(CC1)CC2)c1cc2c(c(N3CC4CC4C3)c1)OCC2 (stereo not shown) [Compound 58], CC(C)(CO)Nc1cc(C(=O)Nc2ccc(S(=O)(=O)NCCO)cc2N2CCC3(CC2)CC3)cc2c1OCC2 [Compound 59], O=C(Nc1ccc(S(=O)(=O)NCCO)cc1N1CCC2(CC1)CC2)c1cc2c(c(N3CCOCC3)c1)OCC2 [Compound 60], C[C@@H](CO)NS(=O)(=O)c1ccc(NC(=O)c2cc3c(c(N4CCC(F)(F)CC4)c2)OCC3)c(N2CCC3(CC2)CC3)c1 [Compound 61], C[C@H](CO)NS(=O)(=O)c1ccc(NC(=O)c2cc3c(c(N4CCC(F)(F)CC4)c2)OCC3)c(N2CCC3(CC2)CC3)c1 [Compound 62], C[C@@H]1CN(c2cc(C(=O)Nc3ccc(S(=O)(=O)N[C@@H](C)CO)cc3N3CCC4(CC3)CC4)cc3c2OCC3)CCO1 [Compound 63], C[C@H](CO)NS(=O)(=O)c1ccc(NC(=O)c2cc3c(c(N4CCO[C@H](C)C4)c2)OCC3)c(N2CCC3(CC2)CC3)c1 [Compound 64], CC1(F)CCN(c2nc(NC(=O)c3ccc(NS(=O)(=O)CCO)cc3N3CCC4(CC3)CC4)cc3c2OCC3)C1 (stereo not shown) [Compound 72], O=C(Nc1cc2c(c(N3CCC(F)CC3)n1)OCC2)c1ccc(NS(=O)(=O)CCO)cc1N1CCC2(CC1)CC2 [Compound 73], O=C(Nc1cc2c(c(N3CC4CC4C3)n1)OCC2)c1ccc(NS(=O)(=O)CCO)cc1N1CCC2(CC1)CC2 (stereo not shown) [Compound 74], CC(C)(CO)Nc1nc(NC(=O)c2ccc(NS(=O)(=O)CCO)cc2N2CCC3(CC2)CC3)cc2c1OCC2 [Compound 75], O=C(Nc1cc2c(c(N3CCOCC3)n1)OCC2)c1ccc(NS(=O)(=O)CCO)cc1N1CCC2(CC1)CC2 [Compound 76], C[C@@H](CO)S(=O)(=O)Nc1ccc(C(=O)Nc2cc3c(c(N4CCC(F)(F)CC4)n2)OCC3)c(N2CCC3(CC2)CC3)c1 [Compound 77], C[C@H](CO)S(=O)(=O)Nc1ccc(C(=O)Nc2cc3c(c(N4CCC(F)(F)CC4)n2)OCC3)c(N2CCC3(CC2)CC3)c1 [Compound 78], C[C@@H]1CN(c2nc(NC(=O)c3ccc(NS(=O)(=O)[C@@H](C)CO)cc3N3CCC4(CC3)CC4)cc3c2OCC3)CCO1 [Compound 79], C[C@@H]1CN(c2nc(NC(=O)c3ccc(NS(=O)(=O)[C@H](C)CO)cc3N3CCC4(CC3)CC4)cc3c2OCC3)CCO1 [Compound 80], C[C@H]1CN(c2nc(NC(=O)c3ccc(S(=O)(=O)NCCO)cc3N3CCC4(CC3)CC4)cc3c2OCC3)CCO1 [Compound 83], O=C(Nc1cc2c(c(N3CC(F)(F)C3)n1)OCC2)c1ccc(S(=O)(=O)NCCO)cc1N1CCC2(CC1)CC2 [Compound 84], O=C(Nc1cc2c(c(OCCC(F)(F)F)n1)OCC2)c1ccc(S(=O)(=O)NCCO)cc1N1CCC2(CC1)CC2 [Compound 85], O=C(Nc1cc2c(c(N3CCC4(CC4)C3)n1)OCC2)c1ccc(S(=O)(=O)NCCO)cc1N1CCC2(CC1)CC2 [Compound 86], O=C(Nc1cc2c(c(OC3CCC3)n1)OCC2)c1ccc(S(=O)(=O)NCCO)cc1N1CCC2(CC1)CC2 [Compound 87], CC1(F)CCN(c2nc(NC(=O)c3ccc(S(=O)(=O)NCCO)cc3N3CCC4(CC3)CC4)cc3c2OCC3)C1 (stereo not shown) [Compound 88], O=C(Nc1cc2c(c(N3CCC(F)CC3)n1)OCC2)c1ccc(S(=O)(=O)NCCO)cc1N1CCC2(CC1)CC2 [Compound 89], O=C(Nc1cc2c(c(N3CC4CC4C3)n1)OCC2)c1ccc(S(=O)(=O)NCCO)cc1N1CCC2(CC1)CC2 (stereo not shown) [Compound 90], CC(C)(CO)Nc1nc(NC(=O)c2ccc(S(=O)(=O)NCCO)cc2N2CCC3(CC2)CC3)cc2c1OCC2 [Compound 91], O=C(Nc1cc2c(c(N3CCOCC3)n1)OCC2)c1ccc(S(=O)(=O)NCCO)cc1N1CCC2(CC1)CC2 [Compound 92], C[C@@H](CO)NS(=O)(=O)c1ccc(C(=O)Nc2cc3c(c(N4CCC(F)(F)CC4)n2)OCC3)c(N2CCC3(CC2)CC3)c1 [Compound 93], C[C@H](CO)NS(=O)(=O)c1ccc(C(=O)Nc2cc3c(c(N4CCC(F)(F)CC4)n2)OCC3)c(N2CCC3(CC2)CC3)c1 [Compound 94], C[C@@H]1CN(c2nc(NC(=O)c3ccc(S(=O)(=O)N[C@@H](C)CO)cc3N3CCC4(CC3)CC4)cc3c2OCC3)CCO1 [Compound 95], C[C@H](CO)NS(=O)(=O)c1ccc(C(=O)Nc2cc3c(c(N4CCO[C@H](C)C4)n2)OCC3)c(N2CCC3(CC2)CC3)c1 [Compound 96], C[C@@H]1CN(c2nc(C(=O)Nc3ccc(NS(=O)(=O)CCO)cc3N3CCC4(CC3)CC4)cc3c2OCC3)CCO1 [Compound 98], C[C@H]1CN(c2nc(C(=O)Nc3ccc(NS(=O)(=O)CCO)cc3N3CCC4(CC3)CC4)cc3c2OCC3)CCO1 [Compound 99], O=C(Nc1ccc(NS(=O)(=O)CCO)cc1N1CCC2(CC1)CC2)c1cc2c(c(N3CC(F)(F)C3)n1)OCC2 [Compound 100], O=C(Nc1ccc(NS(=O)(=O)CCO)cc1N1CCC2(CC1)CC2)c1cc2c(c(OCCC(F)(F)F)n1)OCC2 [Compound 101], O=C(Nc1ccc(NS(=O)(=O)CCO)cc1N1CCC2(CC1)CC2)c1cc2c(c(N3CCC4(CC4)C3)n1)OCC2 [Compound 102], O=C(Nc1ccc(NS(=O)(=O)CCO)cc1N1CCC2(CC1)CC2)c1cc2c(c(OC3CCC3)n1)OCC2 [Compound 103], CC1(F)CCN(c2nc(C(=O)Nc3ccc(NS(=O)(=O)CCO)cc3N3CCC4(CC3)CC4)cc3c2OCC3)C1 (stereo not shown) [Compound 104], O=C(Nc1ccc(NS(=O)(=O)CCO)cc1N1CCC2(CC1)CC2)c1cc2c(c(N3CCC(F)CC3)n1)OCC2 [Compound 105], CC(C)(CO)Nc1nc(C(=O)Nc2ccc(NS(=O)(=O)CCO)cc2N2CCC3(CC2)CC3)cc2c1OCC2 [Compound 107], O=C(Nc1ccc(NS(=O)(=O)CCO)cc1N1CCC2(CC1)CC2)c1cc2c(c(N3CCOCC3)n1)OCC2 [Compound 108], C[C@@H](CO)S(=O)(=O)Nc1ccc(NC(=O)c2cc3c(c(N4CCC(F)(F)CC4)n2)OCC3)c(N2CCC3(CC2)CC3)c1 [Compound 109], C[C@H](CO)S(=O)(=O)Nc1ccc(NC(=O)c2cc3c(c(N4CCC(F)(F)CC4)n2)OCC3)c(N2CCC3(CC2)CC3)c1 [Compound 110], C[C@@H]1CN(c2nc(C(=O)Nc3ccc(NS(=O)(=O)[C@@H](C)CO)cc3N3CCC4(CC3)CC4)cc3c2OCC3)CCO1 [Compound 111], C[C@@H]1CN(c2nc(C(=O)Nc3ccc(NS(=O)(=O)[C@H](C)CO)cc3N3CCC4(CC3)CC4)cc3c2OCC3)CCO1 [Compound 112], C[C@@H]1CN(c2nc(C(=O)Nc3ccc(S(=O)(=O)NCCO)cc3N3CCC4(CC3)CC4)cc3c2OCC3)CCO1 [Compound 114], C[C@H]1CN(c2nc(C(=O)Nc3ccc(S(=O)(=O)NCCO)cc3N3CCC4(CC3)CC4)cc3c2OCC3)CCO1 [Compound 115], O=C(Nc1ccc(S(=O)(=O)NCCO)cc1N1CCC2(CC1)CC2)c1cc2c(c(N3CC(F)(F)C3)n1)OCC2 [Compound 116], O=C(Nc1ccc(S(=O)(=O)NCCO)cc1N1CCC2(CC1)CC2)c1cc2c(c(OCCC(F)(F)F)n1)OCC2 [Compound 117], O=C(Nc1ccc(S(=O)(=O)NCCO)cc1N1CCC2(CC1)CC2)c1cc2c(c(N3CCC4(CC4)C3)n1)OCC2 [Compound 118], O=C(Nc1ccc(S(=O)(=O)NCCO)cc1N1CCC2(CC1)CC2)c1cc2c(c(OC3CCC3)n1)OCC2 [Compound 119], CC1(F)CCN(c2nc(C(=O)Nc3ccc(S(=O)(=O)NCCO)cc3N3CCC4(CC3)CC4)cc3c2OCC3)C1 (stereo not shown) [Compound 120], O=C(Nc1ccc(S(=O)(=O)NCCO)cc1N1CCC2(CC1)CC2)c1cc2c(c(N3CCC(F)CC3)n1)OCC2 [Compound 121], O=C(Nc1ccc(S(=O)(=O)NCCO)cc1N1CCC2(CC1)CC2)c1cc2c(c(N3CC4CC4C3)n1)OCC2 (stereo not shown) [Compound 122], CC(C)(CO)Nc1nc(C(=O)Nc2ccc(S(=O)(=O)NCCO)cc2N2CCC3(CC2)CC3)cc2c1OCC2 [Compound 123], O=C(Nc1ccc(S(=O)(=O)NCCO)cc1N1CCC2(CC1)CC2)c1cc2c(c(N3CCOCC3)n1)OCC2 [Compound 124], C[C@@H](CO)NS(=O)(=O)c1ccc(NC(=O)c2cc3c(c(N4CCC(F)(F)CC4)n2)OCC3)c(N2CCC3(CC2)CC3)c1 [Compound 125], C[C@@H]1CN(c2nc(C(=O)Nc3ccc(S(=O)(=O)N[C@@H](C)CO)cc3N3CCC4(CC3)CC4)cc3c2OCC3)CCO1 [Compound 127]
